Patent EP4810052A2, “HCRHR2 SELECTIVE POLYPEPTIDES” (Gubra A/S, priority 2023, dated 2026)
Where two headings read alike, the source gives them in different places. Starred links: 1 amine or outer side, 2 acyl side, 3 side chain; linkers in the order of their positions; H or OH if unused. Non-standard residues stand in square brackets, D forms with d. Residues, ends and D or L forms follow the SMILES beside them. Groups on a side chain read outwards from the residue. *: point of attachment. C20 diacid = O=C(O)CCCCCCCCCCCCCCCCCCC(=O)*; Pro(cis-4-F) = O=C(O)[C@@H]1C[C@H](F)CN1; γGlu = O=C(O)[C@H](CCC(=O)[*:2])N[*:1]; NMeI = CC[C@H](C)[C@H](NC)C(=O)O; Nle = CCCC[C@H](N)C(=O)O; Ac5c = NC1(C(=O)O)CCCC1; AEEA = NCCOCCOCC(=O)O; Aib = CC(C)(N)C(=O)O

Experiments:
hCRHR2 = target: T1, hCRHR2 (Homo sapiens, UniProt Q13324); test: HTRF cAMP assay, determination of hCRHR2 potency (peptide libraries 5 conc., purified peptides 11 conc.); type: cell-based
T1 sequence (Q13324 1-411): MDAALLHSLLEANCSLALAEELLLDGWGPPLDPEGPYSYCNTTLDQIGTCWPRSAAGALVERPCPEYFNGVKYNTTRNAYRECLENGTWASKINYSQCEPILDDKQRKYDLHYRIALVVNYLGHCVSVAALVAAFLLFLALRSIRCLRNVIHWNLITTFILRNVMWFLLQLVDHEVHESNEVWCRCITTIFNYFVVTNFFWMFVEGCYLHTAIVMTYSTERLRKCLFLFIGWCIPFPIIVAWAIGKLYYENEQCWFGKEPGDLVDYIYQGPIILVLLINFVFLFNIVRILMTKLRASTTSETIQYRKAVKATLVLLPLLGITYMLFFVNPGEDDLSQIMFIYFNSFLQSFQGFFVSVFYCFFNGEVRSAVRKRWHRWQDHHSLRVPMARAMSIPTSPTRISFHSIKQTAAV
Method in brief: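 Read-out was HTRF competitive cAMP detection (d2-labelled cAMP, cryptate-labelled antibody) in suspended, freshly thawed CHO-K1 cells stably carrying human CRHR2.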

hCRHR1 = target: T2, hCRHR1 (Homo sapiens, UniProt P34998); test: HTRF cAMP assay, determination of hCRHR1 potency (peptide libraries 5 conc., purified peptides 11 conc.); type: cell-based
T2 sequence (P34998 24-415): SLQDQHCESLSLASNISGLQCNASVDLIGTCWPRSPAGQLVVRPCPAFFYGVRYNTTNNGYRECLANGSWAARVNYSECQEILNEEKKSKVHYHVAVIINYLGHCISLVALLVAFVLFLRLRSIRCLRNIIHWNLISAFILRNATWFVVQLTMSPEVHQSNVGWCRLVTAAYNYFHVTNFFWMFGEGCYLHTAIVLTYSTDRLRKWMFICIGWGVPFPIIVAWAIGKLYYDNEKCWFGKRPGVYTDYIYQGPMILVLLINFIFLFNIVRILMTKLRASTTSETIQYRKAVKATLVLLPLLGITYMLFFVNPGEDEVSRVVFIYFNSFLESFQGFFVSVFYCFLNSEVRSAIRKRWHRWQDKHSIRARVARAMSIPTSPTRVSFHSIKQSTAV
Method in brief: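 Cellular cAMP was read by time-resolved FRET between d2-labelled cAMP and cryptate anti-cAMP antibody. The cells were freshly thawed suspension CHO-K1 cells stably expressing human CRHR1.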

[1] = library peptides, matched molecular pairs L vs Nle in position X^38, read-out: Potency hCRHR2 pEC50 (converted)
[2] = library peptides, matched molecular pairs L vs Nle in position X^38, read-out: Potency hCRHR1 pEC50 (converted)

| Structure (SMILES) | EC50 (hCRHR2; [1]) [nM] | EC50 (hCRHR1; [2]) [nM] | EC50 (hCRHR2; Table 4, library peptides having X^38 = Nle, read-out: hCRHR2 pEC50 (converted)) [nM] | EC50 (hCRHR1; Table 4, library peptides having X^38 = Nle, read-out: hCRHR1 pEC50 (converted)) [nM] |
| --- | --- | --- | --- | --- |
| CC[C@H](C)[C@H](N)C(=O)N[C@H](C(=O)N[C@@H](CC(C)C)C(=O)N[C@@H](CO)C(=O)N[C@@H](CC(C)C)C(=O)N[C@@H](CC(=O)O)C(=O)NC1(C(=O)N2C[C@@H](F)C[C@H]2C(=O)N[C@H](C(=O)NCC(=O)N[C@@H](CC(C)C)C(=O)N[C@@H](CC(C)C)C(=O)N[C@@H](CCC(N)=O)C(=O)N[C@H](C(=O)N[C@@H](CC(C)C)C(=O)N[C@@H](CC(C)C)C(=O)N[C@@H](CCC(=O)O)C(=O)N[C@@H](CCC(N)=O)C(=O)N[C@@H](C)C(=O)N[C@@H](CCCNC(=N)N)C(=O)N[C@@H](C)C(=O)N[C@@H](CCCNC(=N)N)C(=O)N[C@@H](C)C(=O)N[C@@H](C)C(=O)N[C@@H](CCCNC(=N)N)C(=O)N[C@@H](CCC(=O)O)C(=O)N[C@@H](CCC(N)=O)C(=O)N[C@@H](C)C(=O)N[C@@H](CCCCNC(=O)COCCOCCNC(=O)COCCOCCNC(=O)CC[C@H](NC(=O)CC[C@H](NC(=O)CCCCCCCCCCCCCCCCCCC(=O)O)C(=O)O)C(=O)O)C(=O)N[C@H](C(=O)N[C@@H](CC(N)=O)C(=O)N[C@@H](C)C(=O)N[C@@H](CCC(=O)O)C(=O)N[C@H](C(=O)N[C@@H](CC(C)C)C(=O)N[C@@H](C)C(=O)N[C@@H](CCC(=O)O)C(=O)N[C@H](C(N)=O)C(C)C)[C@@H](C)CC)[C@@H](C)O)[C@@H](C)CC)[C@@H](C)CC)CCCC1)C(C)C [compound 86] (H-IVLSLD[Ac5c][Pro(cis-4-F)]IGLLQILLEQARARAAREQAK([AEEA-AEEA-γGlu-γGlu-C20 diacid])TNAEILAEV-NH2) | 0.631 | 3.16 | – | – |
| CCCC[C@H](NC(=O)[C@@H](NC(=O)[C@H](CCC(=O)O)NC(=O)[C@H](C)NC(=O)[C@H](CC(N)=O)NC(=O)[C@@H](NC(=O)[C@H](CCCCNC(=O)COCCOCCNC(=O)COCCOCCNC(=O)CC[C@H](NC(=O)CC[C@H](NC(=O)CCCCCCCCCCCCCCCCCCC(=O)O)C(=O)O)C(=O)O)NC(=O)[C@H](C)NC(=O)[C@H](CCC(N)=O)NC(=O)[C@H](CCC(=O)O)NC(=O)[C@H](CCCNC(=N)N)NC(=O)[C@H](CC(C)C)NC(=O)[C@H](CCC(N)=O)NC(=O)[C@H](CCCNC(=N)N)NC(=O)[C@H](C)NC(=O)[C@H](CCCNC(=N)N)NC(=O)[C@H](C)NC(=O)[C@H](CCC(N)=O)NC(=O)[C@H](CCC(=O)O)NC(=O)[C@H](CC(C)C)NC(=O)[C@H](CC(C)C)NC(=O)[C@@H](NC(=O)[C@H](CCC(N)=O)NC(=O)[C@H](CC(C)C)NC(=O)[C@H](CC(C)C)NC(=O)CNC(=O)[C@@H](NC(=O)[C@@H]1CCCN1C(=O)[C@@H](NC(=O)[C@H](CC(=O)O)NC(=O)[C@H](CC(C)C)NC(=O)[C@H](CO)NC(=O)[C@H](CC(C)C)NC(=O)[C@@H](NC(=O)[C@@H](N)[C@@H](C)CC)C(C)C)C(C)C)[C@@H](C)CC)[C@@H](C)CC)[C@@H](C)O)[C@@H](C)CC)C(=O)N[C@@H](C)C(=O)N[C@@H](CCC(=O)O)C(=O)N[C@H](C(N)=O)C(C)C [compound 73] (H-IVLSLDVPIGLLQILLEQARARQLREQAK([AEEA-AEEA-γGlu-γGlu-C20 diacid])TNAEI[Nle]AEV-NH2) | 0.2 | 3.98 | – | – |
| CCCC[C@H](NC(=O)[C@@H](NC(=O)[C@H](CCC(=O)O)NC(=O)[C@H](C)NC(=O)[C@H](CC(N)=O)NC(=O)[C@@H](NC(=O)[C@H](CCCCNC(=O)COCCOCCNC(=O)COCCOCCNC(=O)CC[C@H](NC(=O)CC[C@H](NC(=O)CCCCCCCCCCCCCCCCCCC(=O)O)C(=O)O)C(=O)O)NC(=O)[C@H](C)NC(=O)[C@H](CCC(N)=O)NC(=O)[C@H](CCC(N)=O)NC(=O)[C@H](CCCNC(=N)N)NC(=O)[C@H](CC(C)C)NC(=O)[C@H](C)NC(=O)[C@H](CCC(=O)O)NC(=O)[C@H](C)NC(=O)[C@H](CCCNC(=N)N)NC(=O)[C@H](C)NC(=O)[C@H](CCC(N)=O)NC(=O)[C@H](CCC(=O)O)NC(=O)[C@H](CC(C)C)NC(=O)[C@H](CC(C)C)NC(=O)[C@@H](NC(=O)[C@H](CCC(N)=O)NC(=O)[C@H](CC(C)C)NC(=O)[C@H](CC(C)C)NC(=O)CNC(=O)[C@@H](NC(=O)[C@@H]1CCCN1C(=O)[C@@H](NC(=O)[C@H](CC(=O)O)NC(=O)[C@H](CC(C)C)NC(=O)[C@H](CO)NC(=O)[C@H](CC(C)C)NC(=O)[C@@H](NC(=O)[C@@H](N)[C@@H](C)CC)C(C)C)C(C)C)[C@@H](C)CC)[C@@H](C)CC)[C@@H](C)O)[C@@H](C)CC)C(=O)N[C@@H](C)C(=O)N[C@@H](CCC(=O)O)C(=O)N[C@H](C(N)=O)C(C)C [compound 59] (H-IVLSLDVPIGLLQILLEQARAEALRQQAK([AEEA-AEEA-γGlu-γGlu-C20 diacid])TNAEI[Nle]AEV-NH2) | 0.158 | 5.01 | – | – |

More lines, now with the values ahead:

| EC50 (hCRHR2; [1]) [nM] | EC50 (hCRHR1; [2]) [nM] | EC50 (hCRHR2; Table 4, library peptides having X^38 = Nle, read-out: hCRHR2 pEC50 (converted)) [nM] | EC50 (hCRHR1; Table 4, library peptides having X^38 = Nle, read-out: hCRHR1 pEC50 (converted)) [nM] | Structure (SMILES) |
| --- | --- | --- | --- | --- |
| – | – | 0.0158 | 1000 | CCCC[C@H](NC(=O)[C@@H](NC(=O)[C@H](CCC(=O)O)NC(=O)[C@H](C)NC(=O)[C@H](CC(N)=O)NC(=O)C(C)(C)NC(=O)[C@H](CCCCNC(=O)COCCOCCNC(=O)COCCOCCNC(=O)CC[C@H](NC(=O)CC[C@H](NC(=O)CCCCCCCCCCCCCCCCCCC(=O)O)C(=O)O)C(=O)O)NC(=O)[C@H](C)NC(=O)[C@H](CCC(N)=O)NC(=O)[C@H](CCC(=O)O)NC(=O)[C@H](CCCNC(=N)N)NC(=O)[C@H](C)NC(=O)[C@H](C)NC(=O)[C@H](CCCNC(=N)N)NC(=O)[C@H](C)NC(=O)[C@H](CCCNC(=N)N)NC(=O)[C@H](C)NC(=O)[C@H](CCC(N)=O)NC(=O)[C@@H](NC(=O)[C@H](CC(C)C)NC(=O)[C@H](CC(C)C)NC(=O)[C@@H](NC(=O)[C@H](CCC(N)=O)NC(=O)[C@H](CC(C)C)NC(=O)[C@H](CC(C)C)NC(=O)CNC(=O)[C@@H](NC(=O)[C@@H]1CCCN1C(=O)[C@@H](NC(=O)[C@H](CC(=O)O)NC(=O)[C@H](CC(C)C)NC(=O)[C@H](CO)NC(=O)[C@H](CC(C)C)NC(=O)[C@@H](NC(=O)[C@@H](NC)[C@@H](C)CC)C(C)C)C(C)C)[C@@H](C)CC)[C@@H](C)CC)C(C)C)[C@@H](C)CC)C(=O)N[C@@H](C)C(=O)N[C@@H](CCC(=O)O)C(=O)N[C@H](C(N)=O)C(C)C [compound 138] (H-[NMeI]VLSLDVPIGLLQILLVQARARAAREQAK([AEEA-AEEA-γGlu-γGlu-C20 diacid])[Aib]NAEI[Nle]AEV-NH2) |
| 0.126 | 63.1 | – | – | CCCC[C@H](NC(=O)[C@@H](NC(=O)[C@H](CCC(=O)O)NC(=O)[C@H](C)NC(=O)[C@H](CC(N)=O)NC(=O)[C@@H](NC(=O)[C@H](CCCCNC(=O)COCCOCCNC(=O)COCCOCCNC(=O)CC[C@H](NC(=O)CC[C@H](NC(=O)CCCCCCCCCCCCCCCCCCC(=O)O)C(=O)O)C(=O)O)NC(=O)[C@H](C)NC(=O)[C@H](CCC(N)=O)NC(=O)[C@H](CCC(=O)O)NC(=O)[C@H](CCCNC(=N)N)NC(=O)[C@H](CCC(N)=O)NC(=O)[C@H](C)NC(=O)[C@H](CCCNC(=N)N)NC(=O)[C@H](C)NC(=O)[C@H](CCCNC(=N)N)NC(=O)[C@H](C)NC(=O)[C@H](CCC(N)=O)NC(=O)[C@H](CCC(=O)O)NC(=O)[C@H](CC(C)C)NC(=O)[C@H](CC(C)C)NC(=O)[C@@H](NC(=O)[C@H](CCC(N)=O)NC(=O)[C@H](CC(C)C)NC(=O)[C@H](CC(C)C)NC(=O)CNC(=O)[C@@H](NC(=O)[C@@H]1CCCN1C(=O)[C@@H](NC(=O)[C@H](CC(=O)O)NC(=O)[C@H](CC(C)C)NC(=O)[C@H](CO)NC(=O)[C@H](CC(C)C)NC(=O)[C@@H](NC(=O)[C@@H](N)[C@@H](C)CC)C(C)C)C(C)C)[C@@H](C)CC)[C@@H](C)CC)[C@@H](C)O)[C@@H](C)CC)C(=O)N[C@@H](C)C(=O)N[C@@H](CCC(=O)O)C(=O)N[C@H](C(N)=O)C(C)C [compound 57] (H-IVLSLDVPIGLLQILLEQARARAQREQAK([AEEA-AEEA-γGlu-γGlu-C20 diacid])TNAEI[Nle]AEV-NH2) |
